What all share (assay): Single agent viability assay (96 hours, alamarBlue)
Holding throughout (format): cell-based
(In general: Resazurin is reduced to fluorescent resorufin, in cell work by metabolically active cells.)

One series has as its system MOLM-13. The settings on record: for EC50: Homo sapiens, MOLM-13, mean, 96 hours incubation, N=2; for EC50 (range in words) / reduction of viability (compared to vehicle controls): MOLM-13, 96 hours. How it is done: (§1) Mycoplasma-free AML cell lines were maintained in RPMI 10% FBS medium at 37° C. in a humidified incubator with controlled 5% CO2 atmosphere. Cell freezing and thawing was performed following recommendation from ATCC. Genetic profiling of the cell lines used is available in Table 1.
(§2) Cells were seeded in 96-well plates at the optimal density to guarantee linear growth throughout the assay (8000 cells/well for MV(4;11), 4000 cells/well for MOLM-13 and OCI-AML3) in 50 μL of medium. Each experimental condition was tested in technical triplicates, including medium-only and vehicle-treated controls for background correction and normalization, respectively. After seeding, 50 μL of medium containing 9 serial dilutions of 2×-concentrated compound were added to the cells to obtain 100 μL of cells with 1×-concentrated compound at each dilution (DMSO %<0.5%). Cells were then incubated for 96 hours at 37° C. in a controlled 5% CO2 atmosphere, prior to evaluation of cell viability using alamarBlue™ cell viability reagent (ThermoFisher Scientific, Waltham, MA/USA). AlamarBlue™ is a cell viability indicator that uses the natural reducing power of living cells to convert resazurin to the fluorescent molecule resorufin. Briefly, alamarBlue™ stock solution was diluted 1:20 in the culture medium and after 3 hours incubation fluorescence was measured using a TECAN Infinity 2000 plate reader (Tecan Group Ltd., Mannedorf, CH; 540-570 nm excitation wavelength, 580-610 nm emission wavelength). For each condition, the average fluorescence was calculated from the 3 technical replicates; background correction was calculated from the fluorescence of medium-only controls. Data were analyzed using the GraphPad PRISM® version 9.0.1 (GraphPad Software, Inc., La Jolla, CA/USA) to calculate the best-fitting curves and the EC50 values.

Another series has as its system MV(4;11). Conditions: for EC50: Homo sapiens, MV4-11, mean, 96 hours incubation, N=2; for EC50 (range in words) / reduction of viability (compared to vehicle controls): MV(4;11), 96 hours. How it is done:
as §1, §2

The subject of another series is OCI-AML3. Conditions: for EC50: Homo sapiens, OCI-AML-3, mean, 96 hours incubation, N=2. How it is done: as §1, §2

Here are results for six compounds from patent US20260151399A1, “COMBINATIONS OF LSD1 INHIBITORS AND MENIN INHIBITORS FOR TREATING CANCER” (ORYZON GENOMICS, S.A., priority 2022, published 2026).

Turning to `N#Cc1cc2cc(CN3CCC(Nc4ncnc5sc(CC(F)(F)F)cc45)CC3)ccc2[nH]1` [MI-136, 5-[[4-[[6-(2,2,2-trifluoroethyl)thieno[2,3-d]pyrimidin-4-yl]amino]piperidin-1-yl]methyl]-1H-indole-2-carbonitrile], in the series with MOLM-13, the EC50 (usually the midpoint of the concentration-response curve) came out at 1840 nM, the “EC50 (range in words)” value is on record as “less potent than SNDX-5613” and the “reduction of viability (compared to vehicle controls)” value (shortened to “reduction of viability”) came to 100%. Further, in the series on MV(4;11), the concentration giving a half-maximal response (EC50) was found to be 593 nM, the “EC50 (range in words)” value is given as “less potent than SNDX-5613” and the “reduction of viability” value came to 100%.
With `CC(C)(C)OC(=O)N[C@@H]1CCCN(Cc2ccnc(C(=O)Nc3ccc(-c4cc5c(N6CCOCC6)ncnc5[nH]4)cc3)c2)C1` [Menin-MLL inhibitor 20, tert-butyl N-[(3R)-1-[[2-[[4-(4-morpholin-4-yl-7H-pyrrolo[2,3-d]pyrimidin-6-yl)phenyl]carbamoyl]pyridin-4-yl]methyl]piperidin-3-yl]carbamate], in the series with MOLM-13, the EC50 turned out to be 714 nM, the “EC50 (range in words)” value is listed as “less potent than SNDX-5613” and the “reduction of viability” value was found to be 100%. In the series on MV(4;11), the EC50 was 750 nM, the “EC50 (range in words)” value is “less potent than SNDX-5613” and the “reduction of viability” value is 100%.
On to `CN1CCN(C(=O)[C@H](CCCN[C@@H]2C[C@H]2c2ccc(F)cc2)NC(=O)c2ccc(-n3ccnn3)cc2)CC1` [bomedemstat, N-[(2S)-5-{[(1R,2S)-2-(4-fluorophenyl)cyclopropyl]amino}-1-(4-methylpiperazin-1-yl)-1-oxopentan-2-yl]-4-(1H-1,2,3-triazol-1-yl)benzamide], for which the EC50 in the series with MOLM-13 turned out to be 3.55 nM; in the series on MV(4;11) it was 2.9 nM; in the series on OCI-AML3 it was 1.4 nM.
`N[C@H]1CC[C@H](N[C@@H]2C[C@H]2c2ccccc2)CC1` [iadademstat, (trans)-N1-((1R,2S)-2-phenylcyclopropyl)cyclohexane-1,4-diamine]: the EC50 in the series on MOLM-13 stood at 0.2 nM; in the series with MV(4;11), 0.16 nM; in the series on OCI-AML3 it was 0.13 nM.
As to `COc1ccc(-c2c(-c3ccc(C#N)c(F)c3)nc(N3CCC(N)CC3)n(C)c2=O)cc1F` [pulrodemstat, 4-[2-(4-aminopiperidin-1-yl)-5-(3-fluoro-4-methoxyphenyl)-1-methyl-6-oxo-1,6-dihydropyrimidin-4-yl]-2-fluorobenzonitrile], the figures for the EC50 in the series with MOLM-13, in the series with MV(4;11) and with OCI-AML3 were 1.15 nM, 1.1 nM and 0.99 nM, respectively.
With `CCN(C(=O)c1cc(F)ccc1Oc1cncnc1N1CC2(CCN(C[C@H]3CC[C@H](NS(=O)(=O)CC)CC3)CC2)C1)C(C)C` [revumenib, 2-{[4-(7-{[trans-4-(ethanesulfonamido)cyclohexyl]methyl}-2,7-diazaspiro[3.5]nonan-2-yl)pyrimidin-5-yl]oxy}-N-ethyl-5-fluoro-N-(propan-2-yl)benzamide], the EC50 turned out to be 32 nM in the series with MOLM-13, 9.58 nM in the series on MV(4;11) and 53.2 nM with OCI-AML3. Also, the “EC50 (range in words)” value in the series on MOLM-13 was “nanomolar range”; with MV(4;11), “nanomolar range”; in the series on OCI-AML3 (OCI-AML3, 96 hours), “nanomolar range”. Moreover, the “reduction of viability” value is reported as “around 70%” with MOLM-13; around 100% in the series with MV(4;11); “around 50%” in the series on OCI-AML3 (OCI-AML3, 96 hours).
